Source: the supplement of paper PMC10331698
± gives the standard deviation of the averaged measurements.

How the values were obtained:
Assay in all cases: level (log10 ratio to DMSO vehicle control); higher = higher biomarker level / cell amount than vehicle control
[1] = compound: CCOC(=O)CC(=O)C(F)(F)C(F)(F)F [Ethyl pentafluoropropionyl acetate] (in DMSO)
Description: (§1)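 BioMAP Diversity Plus panel of 12 human primary cell co-culture systems (3C, 4H, LPS, SAg, BT, BF4T, BE3C, CASM3C, HDF3CGF, KF3CT, MyoF, Mphg). Compounds were added 1 h before stimulation and left for 24 h (MyoF 48 h; BT 72 h for soluble read-outs or 6 d for IgG). Biomarkers were read by ELISA, cytotoxicity by SRB, PBMC viability and proliferation by Alamar Blue. Each well value was divided by the mean of 8 DMSO control wells on the same plate and log10 transformed; duplicate blinded samples were tested at 4 concentrations.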

[2] = compound: NS(=O)(=O)C(F)(F)C(F)(F)C(F)(F)C(F)(F)C(F)(F)C(F)(F)C(F)(F)C(F)(F)F [Perfluorooctanesulfonamide] (in DMSO)
Description: as §1

[3] = compound: O=C(O)C(F)(F)OC(F)(F)C(F)(F)OC(F)(F)C(F)(F)OC(F)(F)C(F)(F)C(F)(F)C(F)(F)F [Perfluoro-3,6,9-trioxatridecanoic acid] (in DMSO); details: 6700 nM
Description: as §1

[4] = compound: O=C(O)C=C(C(F)(F)F)C(F)(F)F [3,3-Bis(trifluoromethyl)-2-propenoic acid] (in DMSO)
Description: as §1

[5] = compound: O=C(O)CCC(F)(C(F)(F)F)C(F)(F)F [4,4-bis(Trifluoromethyl)-4-fluoropropanoic acid] (in DMSO)
Description: as §1

[6] = compound: O=S(=O)(O)C(F)(F)C(F)(F)OC(F)(F)C(F)(F)F [Perfluoro(2-ethoxyethane)sulfonic acid] (in DMSO)
Description: as §1

[7] = compound: O=S(=O)(O)CCC(F)(F)C(F)(F)C(F)(F)C(F)(F)C(F)(F)C(F)(F)C(F)(F)C(F)(F)F [8:2 Fluorotelomer sulfonic acid] (in DMSO)
Description: as §1

Test System | level (log10) ([1]; 6700 nM) | level (log10) ([1]; 20000 nM) | level (log10) ([1]; 60000 nM) | level (log10) ([2]; 6700 nM) | level (log10) ([2]; 20000 nM) | level (log10) [3] | level (log10) ([4]; 6700 nM) | level (log10) ([4]; 20000 nM) | level (log10) ([4]; 60000 nM) | level (log10) ([5]; 6700 nM) | level (log10) ([5]; 20000 nM) | level (log10) ([5]; 60000 nM) | level (log10) ([6]; 6700 nM) | level (log10) ([6]; 20000 nM) | level (log10) ([6]; 60000 nM) | level (log10) ([7]; 6700 nM) | level (log10) ([7]; 20000 nM) | level (log10) ([7]; 60000 nM)
CASM3C:CD106/VCAM-1 | -0.01 ± 0.0085 | -0.011 ± 0.0085 | -0.01 ± 0.023 | -0.0185 ± 0.0021 | -0.0405 ± 0.037 | -0.035 ± 0.024 | -0.152 ± 0.012 | -0.216 ± 0.021 | -0.284 ± 0.054 | -0.0265 ± 0.049 | -0.0185 ± 0.056 | -0.033 ± 0.0099 | -0.0035 ± 0.023 | -0.0165 ± 0.026 | 0.001 ± 0.018 | 0.0015 ± 0.029 | -0.0425 ± 0.025 | -0.071 ± 0.033
CASM3C:CD141/Thrombomodulin | -0.005 ± 0.0071 | -0.0005 ± 0.00071 | -0.0115 ± 0.018 | 0 ± 0.0085 | 0.0505 ± 0.0078 | -0.0345 ± 0.0064 | 0.03 ± 0.0071 | 0.0275 ± 0.0064 | 0.026 ± 0.0028 | -0.0525 ± 0.069 | -0.032 ± 0.041 | 0.0035 ± 0.019 | 0.005 ± 0.011 | -0.015 ± 0.0071 | 0.023 ± 0.044 | -0.0045 ± 0.029 | -0.026 ± 0.04 | -0.0265 ± 0.0035
CASM3C:CD142/Tissue Factor | -0.0235 ± 0.046 | -0.008 ± 0.031 | 0.0035 ± 0.012 | 0.021 ± 0.011 | 0.082 ± 0.04 | 0.013 ± 0.02 | 0.055 ± 0.018 | -0.009 ± 0.041 | -0.0635 ± 0.06 | -0.0325 ± 0.047 | -0.011 | 0.0385 ± 0.049 | -0.023 ± 0.0085 | -0.0335 ± 0.035 | 0.045 ± 0.067 | -0.045 ± 0.0042 | -0.067 ± 0.027 | -0.0195 ± 0.03
CASM3C:CXCL8/IL-8 | 0.0045 ± 0.0035 | 0 | 0.0035 ± 0.0078 | -0.0055 ± 0.0035 | -0.0125 ± 0.0035 | 0.002 ± 0.0085 | -0.0025 ± 0.0021 | -0.0045 ± 0.005 | 0.0125 ± 0.022 | -0.0115 ± 0.012 | -0.0135 ± 0.012 | -0.0195 ± 0.005 | -0.0095 ± 0.00071 | -0.0055 ± 0.0078 | 0.0265 ± 0.005 | 0.019 ± 0.018 | -0.0065 ± 0.012 | 0.0035 ± 0.013
CASM3C:CXCL9/MIG | -0.018 ± 0.03 | -0.0145 ± 0.0064 | -0.0035 ± 0.0092 | -0.0005 ± 0.011 | -0.0305 ± 0.022 | -0.01 ± 0.0014 | -0.059 ± 0.051 | -0.0845 ± 0.022 | -0.0965 ± 0.087 | -0.0035 ± 0.005 | -0.0165 ± 0.00071 | 0.018 ± 0.047 | -0.0205 ± 0.0064 | -0.0105 ± 0.0035 | 0.0145 ± 0.057 | -0.03 ± 0.02 | -0.032 ± 0.0071 | 0 ± 0.021
CASM3C:HLA-DR | -0.0125 ± 0.0064 | -0.0185 ± 0.015 | -0.015 ± 0.014 | -0.0045 ± 0.012 | -0.004 ± 0.0085 | -0.0005 ± 0.0078 | -0.121 ± 0.0028 | -0.167 ± 0.0085 | -0.181 ± 0.067 | -0.035 ± 0.0014 | -0.0285 ± 0.012 | 0.0035 ± 0.012 | 0.011 ± 0.0099 | 0 ± 0.02 | -0.005 ± 0.016 | 0.0155 ± 0.023 | -0.009 ± 0.024 | -0.015 ± 0.017
CASM3C:IL-6 | -0.022 ± 0.011 | -0.021 ± 0.023 | 0.009 ± 0.057 | -0.0275 ± 0.018 | -0.023 ± 0.014 | -0.0055 ± 0.061 | -0.097 ± 0.045 | -0.148 ± 0.0071 | -0.189 ± 0.026 | -0.02 ± 0.0014 | -0.0225 ± 0.005 | 0.009 ± 0.061 | -0.024 ± 0.0028 | -0.041 ± 0.033 | -0.0725 ± 0.015 | 0.0025 ± 0.029 | -0.0075 ± 0.0064 | -0.0005 ± 0.018
CASM3C:LDLR | -0.0125 ± 0.019 | -0.002 ± 0.0085 | 0.0035 ± 0.013 | -0.0095 ± 0.011 | -0.0165 ± 0.0078 | -0.029 ± 0.011 | -0.008 ± 0.011 | -0.0175 ± 0.0064 | -0.022 ± 0.016 | -0.0085 ± 0.037 | 0.0045 ± 0.036 | 0.018 ± 0.014 | -0.006 ± 0.0014 | -0.0085 ± 0.00071 | 0.0005 ± 0.023 | -0.0005 ± 0.0064 | 0.0135 ± 0.013 | 0.0415 ± 0.026
